Measured values as given in PMC12801676, “Guanidino compounds with native GABA(A) δ receptor selectivity: a tale of homeostatic compensation in δ-KO mice” (BMC Neuroscience, 2025).
“And” between values parts separate entries of the source, which are not always exact repeats. Equal values may be shown once. Read-outs that look alike come from different tables or passages of the source.

Legend:
[1] = test system: native GABARs in WT cerebellar granule cells (CGCs); assay: Whole-cell patch clamp of WT cerebellar granule cells in brain slices, cumulative concentration-response; conditions: for WT Imax / WT slope (Hill slope) / EC50: WT CGCs, mean ± SEM; for WT Imax: maximal evoked current at saturating agonist concentration; for EC50: read-out: WT EC50, steady-state currents at -70 mV, Hill fit; for CGC GABAR activity: concentrations up to 1 mM
[2] = molecular target: GABARs in WT mouse forebrain membranes; assay: [3H]muscimol displacement, WT forebrain membranes; assay type: binding; conditions: for IC50: 5 nM [3H]muscimol; for [3H]muscimol (5 nM) displacement: concentrations up to 0.3 mM, mouse forebrain
Description: (§1) Brain (sans cerebellum) membranes from WT and δ-KO mice were prepared as described and stored frozen at -70 °C. After thawing, membranes were washed once in assay buffer (50 mM Tris-HCl, pH 7.4) and incubated for 40 min with 5 nM [^3H]muscimol in assay buffer in a total volume of 300 µl at room temperature. […] Three milliliters of Optiphase HiSafe 3 scintillation fluid (Wallac, Turku, Finland) were added to air-dried filters and GABAR bound [^3H]muscimol radioactivity determined in a Hidex 600 SL liquid scintillation counter (Hidex, Turku, Finland).

[3] = molecular target: GABARs in δ-KO mouse forebrain membranes; assay: [3H]muscimol displacement, δ-KO forebrain membranes; assay type: binding; conditions: for IC50: δ-KO forebrain membranes, room temperature, mean ± SD
Description: as §1

[4] = test system: native GABARs in δ-KO cerebellar granule cells (CGCs); assay: Whole-cell patch clamp of δ-KO cerebellar granule cells in brain slices, cumulative concentration-response; assay type: cell-based, mouse; conditions: mean ± SEM; for δ-KO Imax: maximal evoked current at saturating agonist concentration; for EC50: steady-state currents at -70 mV, Hill fit
taurine transporter = test system: taurine transporter; parameters: method as in PMID 512911; conditions: ref [24]; read-out: Km as taurine transporter substrate; cited from earlier work
creatine transporter = test system: creatine transporter; parameters: method as in PMID 35837012; conditions: recombinant (HEK) cell expression; ref [20]; cited from earlier work
[5] = test system: recombinantly expressed γ2-GABARs; parameters: method as in PMID 9396785; conditions: ref [48], read-out: functional (EC50) muscimol responses; cited from earlier work
α4β3δ receptors = molecular target: α4β3δ receptors; parameters: method as in PMID 30565258; conditions: ref [36], read-out: functional muscimol EC50; cited from earlier work
[6] = WT forebrain membranes, room temperature, mean ± SD, read-out: IC50 for [3H]muscimol displacement, WT

Row | SMILES | WT Imax [1] [pA] | WT slope (Hill slope) [1] | EC50 [1] | IC50 [2, 6] | IC50 ([3]; 5 nM [3H]muscimol) [µM] | δ-KO Imax [4] [pA] | δ-KO slope (Hill slope) [4] | EC50 [4] | further results
1 | [H]/N=C(/N)NCC(=O)O [GAA, guanidinoacetate] | -60 ± 18 | 1.1 ± 0.16 | 4.4 ± 0.9 µM | 3.1 ± 0.7 µM | 2.5 ± 0.3 | -50 ± 10 | 0.94 ± 0.1 | 14 ± 2 µM | –
2 | NCCCC(=O)O [GABA, γ-aminobutyrate] | -66 ± 5 | 1.5 ± 0.3 | – | – | – | -65 ± 18 | 1.1 ± 0.1 | – | –
3 | NC(N)=NCCS(=O)(=O)O [GES, guanidinoethanesulfonate] | -35 ± 7 | 0.89 ± 0.3 | ~32 µM and 32 µM | 36 ± 7 µM | 35 ± 4 | -29 ± 6 | 0.83 ± 0.2 | 72 ± 10 µM | Km (taurine transporter): ~150 µM
4 | NCc1cc(=O)[nH]o1 [[^3H]muscimol, [Methylene-^3H]muscimol, reference compound] | – | – | – | – | – | – | – | – | 5 nM [3H]muscimol binding, WT ([2]; WT forebrain, specific binding normalized to protein): 265 ± 7 fmol/mg protein; reduction of [3H]muscimol binding in δ-KO forebrain compared with WT ([3]; 5 nM [3H]muscimol, forebrain): ~ 50%; 5 nM [3H]muscimol binding, δ-KO ([3]; δ-KO forebrain, specific binding normalized to protein): 140 ± 5 fmol/mg protein
5 | N=C(N)NCCC[C@H](N)C(=O)O [arginine] | – | – | – | – | – | – | – | – | CGC GABAR activity [1]: absence of detectable CGC GABAR activity; [3H]muscimol (5 nM) displacement [2]: absence of [^3H]muscimol (5 nM) displacement
6 | CN(CC(=O)O)C(=N)N [creatine] | – | – | – | – | – | – | – | – | CGC GABAR activity [1]: absence of detectable CGC GABAR activity; EC50 (creatine transporter): ~35 µM; [3H]muscimol (5 nM) displacement [2]: absence of [^3H]muscimol (5 nM) displacement
7 | COc1ccc(-c2ccc(=N)n(CCCC(=O)O)n2)cc1 [gabazine, Gabazine, reference compound] | – | – | – | – | – | – | – | – | block of agonist-evoked CGC currents ([1]; currents evoked by GAA, β-GPA, γ-GBA, GES in WT and δ-KO CGCs): completely blocked
8 | NCc1cc(=O)[nH]o1 [muscimol] | – | – | – | – | – | – | – | – | EC50 [5]: 1 to 10 µM; EC50 (α4β3δ receptors): ~0.001 µM
9 | N=C(N)NCCCC(=O)C(=O)O [α-K-δ-GVA, α-Keto-δ-guanidinovalerate] | – | – | – | – | – | – | – | – | CGC GABAR activity [1]: absence of detectable CGC GABAR activity; [3H]muscimol (5 nM) displacement [2]: absence of [^3H]muscimol (5 nM) displacement
10 | [H]/N=C(\N)NCCC(=O)O [β-GPA, β-guanidinopropionate] | -45 ± 9 | 0.85 ± 0.1 | 3.2 ± 0.6 µM | 3.8 µM and ~4 µM | 3.6 ± 0.6 | -74 ± 19 | 1.3 ± 0.2 | 8 µM and 8.2 µM | EC50 (creatine transporter): ~13 µM
11 | N=C(N)NCCCC(=O)O [γ-GBA, γ-guanidinobutyrate] | -75 ± 12 | 0.81 ± 0.1 | ~44 µM and 44 µM | 8.5 ± 0.9 µM | 26 ± 5 | -32 ± 7 | 0.95 ± 0.1 | 219 ± 11 µM | IC50 ([2]; δ-KO values subtracted from WT values, read-out: δ-specific (WT minus δKO) displacement IC50): 3.5 ± 1.2 µM
